Measured values as given in ChEMBL document CHEMBL4184120, “Target ROS to induce apoptosis and cell cycle arrest by 5,7-dimethoxy-1,4-naphthoquinone derivative” (Bioorg Med Chem Lett, 2018).

Experiments:
[1] = system: A549; experiment: Antiproliferative activity against human A549 cells after 48 hrs by MTT assay; type: functional, cell-based; conditions: A549, 48 h
[2] = system: NCI-H460; experiment: Antiproliferative activity against human NCI-H460 cells after 48 by hrs MTT assay; type: functional, cell-based
[3] = Redox potential of the compound in pH 7.4 PBS buffer assessed as half wave potential at 0.4 mM by cyclic voltametry; type: physicochemical; conditions: pH 7.4, 400 µM
[4] = Redox potential of the compound in pH 7.4 PBS buffer assessed as reduction potential at 0.4 mM by cyclic voltametry; type: physicochemical; conditions: pH 7.4, 400 µM
[5] = system: HL-60; experiment: Antiproliferative activity against human HL60 cells after 48 hrs by MTT assay; type: functional, cell-based; conditions: HL-60, 48 h
[6] = Redox potential of the compound in pH 7.4 PBS buffer assessed as oxidation potential at 0.4 mM by cyclic voltametry; type: physicochemical; conditions: pH 7.4, 400 µM
[7] = system: HeLa; experiment: Antiproliferative activity against human HeLa cells after 48 hrs by MTT assay; type: functional, cell-based
[8] = system: HepG2; experiment: Antiproliferative activity against human HepG2 cells after 48 hrs by MTT assay; type: functional, cell-based; conditions: HepG2, 48 h
[9] = system: HL-60; experiment: Induction of apoptosis in human HL60 cells assessed as late apoptotic cells at 5 mM after 48 hrs by Annexin V-FITC/propidium iodide staining based flow cytometry (reference value: 1.23%); type: functional
[10] = system: HL-60; experiment: Cell cycle arrest in human HL60 cells assessed as accumulation at S phase at 5 mM after 48 hrs by propidium iodide staining based assay (reference value: 46.44%); type: functional
[11] = system: HL-60; experiment: Induction of apoptosis in human HL60 cells assessed as early apoptotic cells at 5 mM after 48 hrs by Annexin V-FITC/propidium iodide staining based flow cytometry (reference value: 3.13%); type: functional
[12] = system: HL-60; experiment: Cell cycle arrest in human HL60 cells assessed as accumulation at G2/M phase at 5 mM after 48 hrs by propidium iodide staining based assay (reference value: 2.68%); type: functional
[13] = system: HL-60; experiment: Cell cycle arrest in human HL60 cells assessed as accumulation at G0/G1 phase at 5 mM after 48 hrs by propidium iodide staining based assay (reference value: 50.88%); type: functional

| SMILES | IC50 [1] | IC50 [2] | Activity [3] | Activity [4] | IC50 [5] | Activity [6] | IC50 [7] | IC50 [8] | Activity [9] | Activity [10] | Activity [11] | Activity [12] | Activity [13] |
| --- | --- | --- | --- | --- | --- | --- | --- | --- | --- | --- | --- | --- | --- |
| CCCCC1=C(O)C(=O)c2cc(OC)cc(OC)c2C1=O | 65.4 µM | > 100 µM | -0.278 V | -0.328 V | > 100 µM | -0.227 V | > 100 µM | 95.9 µM | – | – | – | – | – |
| CCC1=C(O)C(=O)c2cc(OC)cc(OC)c2C1=O | > 100 µM | > 100 µM | – | – | > 100 µM | – | 96.5 µM | > 100 µM | – | – | – | – | – |
| CCCCC1=C(OC)C(=O)c2cc(OC)cc(OC)c2C1=O | > 100 µM | 75.2 µM | -0.249 V | -0.311 V | 61.4 µM | -0.187 V | 52.4 µM | 55.9 µM | – | – | – | – | – |
| CCCCCCCCCCCCC1=C(O)C(=O)c2cc(OC)cc(OC)c2C1=O | > 100 µM | > 100 µM | – | – | 86.7 µM | – | > 100 µM | > 100 µM | – | – | – | – | – |
| COC1=C(CCc2ccc(OC)cc2)C(=O)c2c(OC)cc(OC)cc2C1=O | > 100 µM | 37.1 µM | – | – | 52 µM | – | 35 µM | 47.5 µM | – | – | – | – | – |
| COc1cc(OC)c2c(c1)C(=O)C(O)=C(CCc1ccc(N(CCCl)CCCl)cc1)C2=O | > 100 µM | > 100 µM | – | – | 26.1 µM | – | > 100 µM | 81.4 µM | – | – | – | – | – |
| CCCC1=C(O)C(=O)c2cc(OC)cc(OC)c2C1=O | 78.7 µM | > 100 µM | – | – | > 100 µM | – | > 100 µM | > 100 µM | – | – | – | – | – |
| CC(=O)N[C@@H](CS)C(=O)O [ACETYLCYSTEINE] | – | – | – | – | – | – | – | – | 2.43% | 40.12% | 1.56% | 2.52% | 57.36% |
| CCCCCCCCCCC1=C(O)C(=O)c2cc(OC)cc(OC)c2C1=O | > 100 µM | > 100 µM | – | – | 95.5 µM | – | > 100 µM | > 100 µM | – | – | – | – | – |
| COc1cc(OC)c2c(c1)C(=O)C(O)=CC2=O | > 100 µM | > 100 µM | – | – | > 100 µM | – | > 100 µM | > 100 µM | – | – | – | – | – |
| COc1cc(OC)c2c(c1)C(=O)C(O)=C(CCc1ccc(Br)cc1)C2=O | > 100 µM | > 100 µM | – | – | > 100 µM | – | > 100 µM | 73.2 µM | – | – | – | – | – |
